Data published in ChEMBL document CHEMBL1156829 (Proc Natl Acad Sci U S A, 2008).

Legend:
[1] = NOVARTIS: Cytotoxicity against human hepatocellular carcinoma cell line (Huh7); assay type: toxicity, cell-based, Huh-7; conditions: Huh7 cells (hepatocellular carcinoma cell line)
Plasmodium falciparum [2] = assay: NOVARTIS: Inhibition of Plasmodium falciparum W2 (drug-resistant) proliferation in erythrocyte-based infection assay; assay type: functional, organism-based; conditions: Plasmodium falciparum, W2; read-out: EC50
Plasmodium falciparum [3] = assay: NOVARTIS: Inhibition of Plasmodium falciparum 3D7 (drug-susceptible) proliferation in erythrocyte-based infection assay; assay type: functional, organism-based; conditions: Plasmodium falciparum, 3D7

Row | Structure (SMILES) | CC50 [1] [nM] | EC50 (Plasmodium falciparum [2]) [nM] | EC50 (Plasmodium falciparum [3]) [nM]
1 | CCCC(=O)N1CCN(C(=O)c2nc(-c3ccccc3)nc(C(C)C)c2C(=O)OC)CC1C (centres undefined) | > 8440 | 475 | 880
2 | O=Cc1c(OCc2ccc(Cl)cc2Cl)ccc2ccccc12 | > 10000 | 426 | 719
3 | CSc1nnc(-c2cccc([N+](=O)[O-])c2)n1Cc1ccccc1 | > 100000 | 495 | 652
4 | Cc1ccc(CN2CCN(Cc3cn(C(C)C)c4ccccc34)CC2CCO)o1 (centres undefined) | > 100000 | 4210 | > 12500
5 | O=C(NCc1ccccc1)c1cnc(NCCC(c2ccccc2)c2ccccc2)nc1NC1CC1 | > 10000 | < 15.8 | > 1160
6 | CCOC(=O)c1sc(NC(=O)CSc2nnc(CNC(=O)c3ccco3)n2-c2ccc(F)cc2)c(C(=O)OCC)c1C | > 10000 | > 1060 | > 1250
7 | CCCCCCCn1c(=N)n(CC(O)c2ccc(Cl)c(Cl)c2)c2ccccc21 (centres undefined) | 6500 | 33.5 | 204
8 | Cc1ccc(C(=O)NNc2nc(Nc3ccccc3)nc(N3CCCC3)n2)cc1 | > 100000 | 1990 | > 12500
9 | O=C(NC(=CC=Cc1ccccc1)C(=O)N1CCCCC1)c1ccc([N+](=O)[O-])cc1 | > 100000 | 392 | 8290
10 | CCN(CC)CCCNC(=S)N(CCc1cccc(C)c1)Cc1cc2cc(OC)c(OC)cc2[nH]c1=O | 18600 | 747 | 2430
11 | CC1CC2CCC(O2)C(C)C(=O)O[C@H](C)CC2CCC(O2)C(C)C(=O)OC(C)CC2CCC(O2)C(C)C(=O)O[C@H](C)CC2CCC(O2)C(C)C(=O)O1 (some centres undefined) | > 6250 | 699 | 645
12 | COC(=O)C1=CNC=C(C(=O)OC)C1c1ccc(Cl)c(Cl)c1 | > 64900 | 105 | 114
13 | Cc1ccn2c(NC(C)(C)CC(C)(C)C)c(-c3ccccc3OC(=O)C3CCC3)nc2c1 | > 10000 | 75.7 | 822
14 | O=[N+]([O-])c1ccc(S(=O)(=O)N2CCN(C(=S)NCC3CCCO3)CC2)cc1 (centres undefined) | > 100000 | 101 | 136
15 | Cc1c(C)n(Cc2ccc(F)cc2)c2ccc(C(=O)NCc3ccco3)cc12 | > 100000 | 399 | 78.2
16 | CCOc1ccc(N=C2NC(=O)S/C2=C2/C(=O)Nc3ccc(Br)cc32)cc1 | > 10000 | > 720 | > 1250
17 | c1ccc(-c2nc(Nc3ccncc3)cc(-c3cccnc3)n2)cc1 | > 10000 | 1440 | 884
18 | CN(C)CCCNCc1cc(-c2cccnc2)ccc1O | > 10000 | 514 | 241
19 | CC1=C(C(=O)OCC(C)C)C(c2ccc(OCc3ccccc3)cc2)C2=C(CC(c3ccccc3)CC2=O)N1 (centres undefined) | > 100000 | 659 | 961
20 | Cc1ccc(NC(=O)c2ccc(NCCCN3CC(C)CC(C)C3)c([N+](=O)[O-])c2)cc1F (centres undefined) | > 53600 | 736 | 219
21 | CN1CCc2cc3c(c4c2C1Cc1ccccc1-4)OCO3 (centres undefined) [ROEMERINE] | 22300 | 112 | 93.1
22 | N#C/C(=C\NC1CCN(Cc2ccccc2)CC1)C(=O)c1cccs1 | > 10000 | 1620 | 220
23 | Cc1ccc(C2CC(=O)N3CN(c4ccc(Br)cc4)CSC3=C2C#N)o1 (centres undefined) | > 100000 | 1350 | > 12500

Row | Structure (SMILES) | CC50 [1] [nM] | EC50 (Plasmodium falciparum [2]) [nM] | EC50 (Plasmodium falciparum [3]) [nM]
24 | Cc1c(C(=O)N2CCN(c3cccc(Cl)c3)CC2)sc2ncnc(N(C)c3ccccc3)c12 | > 10000 | > 906 | > 723
25 | COc1cccc(C2(NC(=O)CCn3ccnc3-c3ccccc3)CCCC2)c1 | > 10000 | 1780 | > 1250
26 | O=C(C[n+]1cc(-c2ccc(F)cc2)n2c1CCC2)Nc1ccc(Cl)cc1 | > 100000 | 2300 | 2880
27 | COc1ccc(-c2c[n+](CC(=O)O[C@H]3C[C@H](C)CC[C@@H]3C(C)C)c3n2CCCCC3)cc1 | 16500 | 404 | 450
28 | CON(C)C=C(C(=O)Nc1ccc(C(F)(F)F)cc1)C(=O)Nc1ccc(C(F)(F)F)cc1 | > 10000 | 515 | 659
29 | O=C(CSc1ccc2nnc(-c3cccs3)n2n1)Nc1ccc2c(c1)OCCO2 | > 100000 | 573 | 447
30 | COc1cc(/C=C2/SC(=Nc3ccccc3)NC2=O)ccc1OC(=O)c1ccccc1 | > 10000 | 696 | > 933
31 | CC(=O)N1CCN(C(=O)CCCSc2nnc(-c3ccc(C)cc3)n2-c2cccc(C)c2)CC1C (centres undefined) | > 10000 | > 634 | > 914
32 | Cc1ccc(-n2c(C)c(C(=O)c3ccccc3)c3cc(O)ccc32)cc1 | > 100000 | 615 | 508
33 | CC[n+]1c(/C=C/c2ccc(F)cc2)ccc2ccccc21 | > 10000 | 140 | 122
34 | C[n+]1ccccc1/C=C/c1ccc(Br)cc1 | > 10000 | 324 | 360
35 | COc1ccc(NC(=O)c2cccc([N+](=O)[O-])c2C)cc1 | > 100000 | 4770 | > 3550
36 | CCN(CC)c1nc(NN=Cc2cccc([N+](=O)[O-])c2OC)nc(Nc2ccccc2)n1 | > 100000 | 294 | 244
37 | COc1ccc2c(c1)C=C([C@@H]1C[C@H]3CN(c4ccccc4)C(=O)[C@]34CCCN14)CO2 | > 100000 | 289 | 588
38 | CCCCCC(=O)Oc1ccccc1-c1nc2ccccn2c1NC(C)(C)CC(C)(C)C | > 10000 | 19.5 | 701
39 | CCCCCC(=O)Oc1ccccc1-c1nc2cc(C)ccn2c1NC(C)(C)CC(C)(C)C | > 10000 | 44.8 | 703
40 | CN1CCN(c2ccc(NC(=O)Oc3ccccc3)cc2)CC1 | 25400 | 7480 | 4170
41 | Cc1nc2ccccc2c(=O)n1NC(=O)c1cccc([N+](=O)[O-])c1 | > 100000 | 1610 | 141
42 | CCOC(=O)C1=C(C)NC2=C(C(=O)CC(c3ccc(OC)c(OC)c3)C2)C1c1ccccc1C (centres undefined) | > 100000 | 27.4 | 134
43 | Cc1ccc(O)c(Nc2c3c(c(C#N)c4nc5ccccc5n24)CCC3)c1 | > 10000 | 424 | 231
44 | Cc1c(-c2ccc(Cl)cc2)[n+]2c(n1-c1ccccc1)SCCC2 | > 100000 | 1040 | 1150
45 | CC[n+]1c(C=Cc2ccc(Cl)cc2)ccc2ccccc21 | 19500 | 1260 | 3750
46 | OC(CCN1CCN(C(c2ccccc2)c2ccccc2)CC1)c1ccccc1 (centres undefined) | > 100000 | 1030 | 4650

Row | Structure (SMILES) | CC50 [1] [nM] | EC50 (Plasmodium falciparum [2]) [nM] | EC50 (Plasmodium falciparum [3]) [nM]
47 | Nc1nc(Nc2cccc(Cl)c2)n[nH]1 | > 100000 | 958 | 1680
48 | O=C1C(Nc2ccccc2)=C(n2nnc3ccccc32)C(=O)c2ccccc21 | 6300 | 259 | 2020
49 | CC(C)C1Oc2cc3oc(=O)ccc3cc2C1=NO (centres undefined) | > 10000 | 743 | > 1150
50 | COC(=O)C1=C(C)N(C)C(C)=C(C(=O)OC)C1c1ccc(C)cc1 | > 9490 | > 567 | > 811
51 | CCCOC(=O)C1=C(C)NC2=C(C(=O)CC(c3ccc(OC)cc3)C2)C1c1ccccc1F (centres undefined) | > 100000 | 20.1 | 55
52 | O=C(COC(=O)c1c2c(nc3ccccc13)CCCCCCCCCC2)c1ccc(Cl)cc1 | > 100000 | > 10000 | > 11200
53 | CCCN(CCC)S(=O)(=O)c1cc(Br)cc2c1N(C(C)=O)CC2 | > 100000 | 561 | 1990
54 | CCOC(=O)C1=C(C)NC2=C(C(=O)C(C(=O)OC)C(C)C2)C1c1cc(Br)c(OC)c(OC)c1 (centres undefined) | > 100000 | 40.4 | 537
55 | Cc1ccn2c(NC(C)(C)CC(C)(C)C)c(-c3ccccc3OC(=O)c3ccccc3Br)nc2c1 | > 10000 | 117 | 760
56 | COc1ccc(CCNC(=O)Cn2c(C)cc3ccccc3c2=O)cc1OC | > 10000 | 796 | > 1540
57 | COc1nc(Nc2ccc(C(C)C)cc2)nc(OC)n1 | 56900 | 935 | 677
58 | CCN(CC)CCCNC(=S)N(Cc1ccccc1)Cc1cc2cc(C)c(Cl)cc2[nH]c1=O | 20900 | 1160 | 1940
59 | CCc1ccc2[nH]c(=O)c(CN(CCN(CC)CC)C(=S)NCCCN(CC)CC)cc2c1 | 45600 | 1390 | 2380
60 | Cc1cc(Nc2ccc(Cl)cc2)nc(NCc2ccccc2)n1 | 19600 | 150 | 91.9
61 | CC[n+]1c(C=C2C=CN(C)C=C2)ccc2cc(C)ccc21 | > 26800 | 286 | 388
62 | Cc1ccccc1CN1CCN(CC=Cc2ccccc2)CCC1=O | > 100000 | 531 | 1430
63 | O=[N+]([O-])c1ccc(-c2cn3nc(C(F)(F)F)sc3n2)cc1 | > 10000 | 818 | 1050
64 | C=CC1CN2CCC1CC2C(OC(=O)C1CC1)c1ccnc2ccccc12 (centres undefined) | 42200 | 199 | 84.7
65 | Cn1c(C(=O)c2cccc3ccccc23)nc2ccccc21 | 21500 | 32.6 | 6.92
66 | CCCc1ccc(OCc2nc(-c3ccc(NC(=O)c4cccs4)cc3)no2)cc1 | > 100000 | > 12500 | 825
67 | COc1ccccc1NC1=C(N2CCCCC2)C(=O)c2ccccc2C1=O | 7870 | 40.1 | 28
68 | CC[n+]1c(/C=C/N(C)c2ccccc2)sc(-c2ccccc2)c1-c1ccccc1 | > 10000 | 638 | 1100
